From PMC11995724, “Antibiotic target discovery by integrated phenotypic and activity-based profiling of electrophilic fragments” (Cell chemical biology, 2025)

experiment: in vitro; conditions: human, hek293t cells

| SMILES | viability at 48 h, 25 µM [%] |
| --- | --- |
| CCN(c1ccc(C(=O)CCl)cc1)S(C)(=O)=O [10-F04, N-[4-(2-chloroacetyl)phenyl]-N-ethylmethanesulfonamide] | 22.5 |
| Cc1cc(C(=O)CCl)c(C)n1-c1ccon1 [10-F06, 2-chloro-1-[2,5-dimethyl-1-(1,2-oxazol-3-yl)-1H-pyrrol-3-yl]ethan-1-one] | 1.56 |
| Cn1c(=O)oc2cc(C(=O)CCl)ccc21 [10-F07, 6-(2-chloroacetyl)-3-methyl-2,3-dihydro-1,3-benzoxazol-2-one] | 110 |
| CC(C)Cn1c(N)c(C(=O)CCl)c(=O)[nH]c1=O [10-F08, 6-amino-5-(2-chloroacetyl)-1-(2-methylpropyl)-1,2,3,4-tetrahydropyrimidine-2,4-dione] | 91.2 |
| C#CCN1C(=O)C=CC1=O [10-F09, 1-(prop-2-yn-1-yl)-2,5-dihydro-1H-pyrrole-2,5-dione] | 98.4 |
| N#Cc1ccc(C(=O)CCl)cc1 [10-F10, 4-(2-chloroacetyl)benzonitrile] | 49 |
| Cc1ccc(NC(=O)N2CCSSCC2)c(C)c1 [10-F11, N-(2,4-dimethylphenyl)-1,2,5-dithiazepane-5-carboxamide] | 102 |
| CCOc1ccc(C(=O)CCl)cc1 [10-F12, 2-chloro-1-(4-ethoxyphenyl)ethan-1-one] | 1.95 |
| Cc1ccc(C)c(N2C(=O)C=CC2=O)c1 [10-F13, 1-(2,5-dimethylphenyl)-2,5-dihydro-1H-pyrrole-2,5-dione] | 109 |
| N#CC(C(=O)CCl)=C1NC(C23CC4CC(CC(C4)C2)C3)=CS1 [10-F14, 2-[4-(adamantan-1-yl)-2,3-dihydro-1,3-thiazol-2-ylidene]-4-chloro-3-oxobutanenitrile] | 61.8 |
| O=C1C=CC(=O)N1c1ccc(F)cc1F [10-F15, 1-(2,4-difluorophenyl)-2,5-dihydro-1H-pyrrole-2,5-dione] | 89.5 |
| Cc1cc(C(=O)CCl)c(C)n1CCc1cccs1 [10-F16, 2-chloro-1-{2,5-dimethyl-1-[2-(thiophen-2-yl)ethyl]-1H-pyrrol-3-yl}ethan-1-one] | 0.304 |
| O=C1C=CC(=O)N1c1ccc(Oc2ccccc2)cc1 [10-F17, 1-(4-phenoxyphenyl)-2,5-dihydro-1H-pyrrole-2,5-dione] | 73.6 |
| CCc1ccc(C(=O)CCl)cc1 [10-F18, 2-chloro-1-(4-ethylphenyl)ethan-1-one] | 1.07 |
| CN(c1ccc(C(=O)CCl)cc1)S(C)(=O)=O [10-F19, N-[4-(2-chloroacetyl)phenyl]-N-methylmethanesulfonamide] | 74 |
| Cc1ccc(C(=O)C(C)Cl)cc1 (centres unmarked) [10-F20, 2-chloro-1-(4-methylphenyl)propan-1-one] | 80.5 |
| CC(C)c1noc2ncc(C(=O)N3CCSSCC3)cc12 [10-F21, 5-[3-(propan-2-yl)-[1,2]oxazolo[5,4-b]pyridine-5-carbonyl]-1,2,5-dithiazepane] | 86.3 |
| CC(Cl)C(=O)c1c(N)n(C)c(=O)n(C)c1=O (centres unmarked) [10-F22, 6-amino-5-(2-chloropropanoyl)-1,3-dimethyl-1,2,3,4-tetrahydropyrimidine-2,4-dione] | 87.8 |
| O=C1C=CC(=O)N1CCc1ccccc1F [10-G03, 1-[2-(2-fluorophenyl)ethyl]-2,5-dihydro-1H-pyrrole-2,5-dione] | 11.2 |

| SMILES | viability at 48 h, 25 µM [%] |
| --- | --- |
| Cc1cc(C(=O)CCl)c(C)n1-c1ccc(OC(F)(F)F)cc1 [10-G04, 2-chloro-1-{2,5-dimethyl-1-[4-(trifluoromethoxy)phenyl]-1H-pyrrol-3-yl}ethan-1-one] | 0.243 |
| Cc1csc(-n2c(C)cc(C(=O)CCl)c2C)n1 [10-G05, 2-chloro-1-[2,5-dimethyl-1-(4-methyl-1,3-thiazol-2-yl)-1H-pyrrol-3-yl]ethan-1-one] | 72.5 |
| CCOc1ccc(C(=O)C(C)Cl)cc1 (centres unmarked) [10-G06, 2-chloro-1-(4-ethoxyphenyl)propan-1-one] | 89.3 |
| CN1C(=O)Cc2cc(C(=O)CCl)ccc21 [10-G07, 5-(2-chloroacetyl)-1-methyl-2,3-dihydro-1H-indol-2-one] | 46.1 |
| CN1C(=C(C#N)C(=O)CCl)Sc2ccccc21 [10-G08, 4-chloro-2-(3-methyl-2,3-dihydro-1,3-benzothiazol-2-ylidene)-3-oxobutanenitrile] | 77.5 |
| O=C1C=CC(=O)N1c1cc(C(F)(F)F)ccc1Cl [10-G09, 1-[2-chloro-5-(trifluoromethyl)phenyl]-2,5-dihydro-1H-pyrrole-2,5-dione] | 58.9 |
| CNC(=O)c1cc(C(=O)CCl)cn1C [10-G10, 4-(2-chloroacetyl)-N,1-dimethyl-1H-pyrrole-2-carboxamide] | 1.73 |
| CN(C)CCN1C(=O)C=CC1=O [10-G11, 1-[2-(dimethylamino)ethyl]-2,5-dihydro-1H-pyrrole-2,5-dione] | 96.9 |
| COC(=O)C(C(=O)CCl)=C1Nc2ccccc2N1 [10-G12, methyl 4-chloro-2-(2,3-dihydro-1H-1,3-benzodiazol-2-ylidene)-3-oxobutanoate] | 48.7 |
| COC(=O)c1cc(C(=O)CCl)c(C)o1 [10-G13, methyl 4-(2-chloroacetyl)-5-methylfuran-2-carboxylate] | 76.4 |
| Cc1cc(C(=O)CCl)c(C)n1CCc1ccc(F)cc1 [10-G14, 2-chloro-1-{1-[2-(4-fluorophenyl)ethyl]-2,5-dimethyl-1H-pyrrol-3-yl}ethan-1-one] | 0.499 |
| O=C(CCl)Cc1ccc(F)cc1 [10-G15, 1-chloro-3-(4-fluorophenyl)propan-2-one] | 73.7 |
| O=C(CCl)c1cc2c3c(c1)CC(=O)N3CCC2 [10-G16, 6-(2-chloroacetyl)-1-azatricyclo[6.3.1.0,4,12]dodeca-4(12),5,7-trien-2-one] | 1.58 |
| O=C(CCl)Cc1ccc(F)cc1F [10-G17, 1-chloro-3-(2,4-difluorophenyl)propan-2-one] | 36.8 |
| COc1ccc(C(=O)CCl)c(OC)c1 [10-G18, 2-chloro-1-(2,4-dimethoxyphenyl)ethan-1-one] | 66.7 |
| CC(C)(C)c1ccc(CC(=O)CCl)cc1 [10-G19, 1-(4-tert-butylphenyl)-3-chloropropan-2-one] | 1.53 |
| O=C(CCl)c1ccc(Oc2ccccc2)cc1 [10-G20, 2-chloro-1-(4-phenoxyphenyl)ethan-1-one] | 0.299 |
| CN1C=CC(=C(C#N)C(=O)CCl)C=C1 [10-G21, 4-chloro-2-(1-methyl-1,4-dihydropyridin-4-ylidene)-3-oxobutanenitrile] | 1.3 |
| Cc1cc(C(=O)O)ccc1N1C(=O)C=CC1=O [10-G22, 4-(2,5-dioxo-2,5-dihydro-1H-pyrrol-1-yl)-3-methylbenzoic acid] | 107 |

| SMILES | viability at 48 h, 25 µM [%] |
| --- | --- |
| COC(=O)c1c(C(=O)CCl)c(C)n(C2CC2)c1C [10-H03, methyl 4-(2-chloroacetyl)-1-cyclopropyl-2,5-dimethyl-1H-pyrrole-3-carboxylate] | 93.4 |
| CC(=O)N(C)Cc1ccc(C(=O)CCl)cc1 [10-H04, N-{[4-(2-chloroacetyl)phenyl]methyl}-N-methylacetamide] | 64 |
| Cc1cccc(N2C(=O)C=CC2=O)c1C [10-H05, 1-(2,3-dimethylphenyl)-2,5-dihydro-1H-pyrrole-2,5-dione] | 94.3 |
| O=C(CCl)c1ccc(CC(=O)N2CCOCC2)s1 [10-H06, 2-chloro-1-{5-[2-(morpholin-4-yl)-2-oxoethyl]thiophen-2-yl}ethan-1-one] | 71.7 |
| COc1ccc(CCN2C(=O)C=CC2=O)cc1OC [10-H07, 1-[2-(3,4-dimethoxyphenyl)ethyl]-2,5-dihydro-1H-pyrrole-2,5-dione] | 101 |
| CSc1cc(C(=O)CCl)ccc1NC(C)=O [10-H08, N-[4-(2-chloroacetyl)-2-(methylsulfanyl)phenyl]acetamide] | 8.39 |
| Cc1cccc2[nH]cc(C(=O)CCl)c12 [10-H09, 2-chloro-1-(4-methyl-1H-indol-3-yl)ethan-1-one] | 5.75 |
| CC(C)n1ccnc1C(=O)CCl [10-H10, 2-chloro-1-[1-(propan-2-yl)-1H-imidazol-2-yl]ethan-1-one] | 20.4 |
| O=C(Nc1cc(F)ccc1F)N1CCSSCC1 [10-H11, N-(2,5-difluorophenyl)-1,2,5-dithiazepane-5-carboxamide] | 94.9 |
| CCCn1c(N)c(C(=O)CCl)c(=O)n(C)c1=O [10-H12, 6-amino-5-(2-chloroacetyl)-3-methyl-1-propyl-1,2,3,4-tetrahydropyrimidine-2,4-dione] | 86.3 |
| COc1cc([N+](=O)[O-])ccc1N1C(=O)C=CC1=O [10-H13, 1-(2-methoxy-4-nitrophenyl)-2,5-dihydro-1H-pyrrole-2,5-dione] | 97.6 |
| CCc1ccc(CC)c(C(=O)CCl)c1 [10-H14, 2-chloro-1-(2,5-diethylphenyl)ethan-1-one] | 33.6 |
| O=C1C=CC(=O)N1c1cc([N+](=O)[O-])ccc1Cl [10-H15, 1-(2-chloro-5-nitrophenyl)-2,5-dihydro-1H-pyrrole-2,5-dione] | 126 |
| Cc1ccc(NC(=O)N2CCN(C(=O)C=CCN(C)C)CC2)cc1 [10-H16, 4-[4-(dimethylamino)but-2-enoyl]-N-(4-methylphenyl)piperazine-1-carboxamide] | 94.2 |
| O=C(CCl)c1ccc2c(c1)-c1ccccc1C2 [10-H17, 2-chloro-1-(9H-fluoren-3-yl)ethan-1-one] | 51.2 |
| Cc1cc(C(=O)CCl)c(C)n1-c1ccc(Cl)cc1 [10-H18, 2-chloro-1-[1-(4-chlorophenyl)-2,5-dimethyl-1H-pyrrol-3-yl]ethan-1-one] | 0.517 |
| CS(=O)(=O)N1CCCc2cc(C(=O)CCl)ccc21 [10-H19, 2-chloro-1-(1-methanesulfonyl-1,2,3,4-tetrahydroquinolin-6-yl)ethan-1-one] | 72 |
| Cc1ccccc1-n1c(C)cc(C(=O)CCl)c1C [10-H20, 2-chloro-1-[2,5-dimethyl-1-(2-methylphenyl)-1H-pyrrol-3-yl]ethan-1-one] | 0.349 |
